In patent US12410220B2, “Modulation of mammalian cell lineage by synthetic immodulins” (priority 2021, dated 2025):
Peptide text beside a SMILES is read from it.

Biological target: T1, Nur77 (NR4A1) (Homo sapiens, UniProt P22736)
T1 construct: purchased Abcam Inc, Cambridge, MA
Assay: Experiment 4C binding to full-length Nur77
Details: 400 ng/well Nur77; 333 ng/well SA488-labelled peptide, 60 min; background subtracted
Procedure: 400 ng/well recombinant human Nur77 protein (NR4A1) purchased from Abcam Inc, Cambridge, MA, was adsorbed to wells of a 96-well plate for 90 minutes at room temperature, then blocked with 200 uL 1% BSA in PBS buffer overnight. The plate was washed with PBS and then 333 ng/well Streptavidin-Alexa 488 conjugate (SA488)-labelled imm3 or imm4 peptide was added. The plate was incubated for 60 min at room temperature, washed and counted in a standard fluorometer (excitation/emission 485/525 nm). Background (buffer alone) was subtracted.

T1 sequence (P22736 whole entry): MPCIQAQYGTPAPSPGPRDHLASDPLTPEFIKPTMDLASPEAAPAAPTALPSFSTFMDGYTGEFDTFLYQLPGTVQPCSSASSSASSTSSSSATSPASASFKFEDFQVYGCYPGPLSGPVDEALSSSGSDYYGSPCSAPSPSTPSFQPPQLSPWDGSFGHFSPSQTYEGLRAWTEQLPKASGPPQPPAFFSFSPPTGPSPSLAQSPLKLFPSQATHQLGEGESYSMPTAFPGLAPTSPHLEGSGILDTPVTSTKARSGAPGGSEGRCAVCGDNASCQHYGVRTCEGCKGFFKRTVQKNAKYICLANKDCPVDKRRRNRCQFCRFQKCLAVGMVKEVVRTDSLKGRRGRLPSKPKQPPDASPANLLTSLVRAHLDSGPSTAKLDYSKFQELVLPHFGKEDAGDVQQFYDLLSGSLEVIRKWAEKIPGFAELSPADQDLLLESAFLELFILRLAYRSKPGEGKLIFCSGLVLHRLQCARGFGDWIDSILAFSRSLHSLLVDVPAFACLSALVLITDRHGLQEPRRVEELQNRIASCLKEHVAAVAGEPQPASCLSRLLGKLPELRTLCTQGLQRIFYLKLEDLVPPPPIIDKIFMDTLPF

| Binding to Nur77 (NR4A1), normalized to imm3 binding=100 | Structure (SMILES) |
| --- | --- |
| 0.3 ± 8.9 | CC(C)C[C@H](NC(=O)[C@H](C)NC(=O)[C@@H]1CCCN1C(=O)[C@H](Cc1c[nH]cn1)NC(=O)[C@H](CS)NC(=O)[C@H](CCC(N)=O)NC(=O)[C@H](CCCCN)NC(=O)[C@@H]1CCCN1C(=O)[C@H](Cc1c[nH]cn1)NC(=O)[C@H](Cc1ccccc1)NC(=O)[C@H](CC(N)=O)NC(=O)CNC(=O)[C@H](CC(N)=O)NC(=O)[C@@H](N)CCCNC(=N)N)C(=O)N[C@@H](CC(=O)O)C(=O)NCC(=O)N[C@@H](CCC(N)=O)C(=O)N[C@@H](CCCNC(=N)N)C(=O)NCC(=O)N[C@@H](CCCCN)C(=O)N[C@@H](CS)C(=O)N[C@@H](Cc1c[nH]c2ccccc12)C(=O)O [imm4] (H-RNGNFHPKQCHPALDGQRGKCW-OH; N-terminus and C-terminus assumed) |
| 100.0 ± 9.3 | N=C(N)NCCC[C@H](NC(=O)CNC(=O)[C@H](CCCCN)NC(=O)[C@H](CO)NC(=O)[C@@H]1CCCN1C(=O)[C@H](CCCNC(=N)N)NC(=O)[C@H](CS)NC(=O)[C@H](CCC(N)=O)NC(=O)[C@H](CCCCN)NC(=O)[C@H](CCCCN)NC(=O)[C@H](CCCCN)NC(=O)[C@H](Cc1ccc(O)cc1)NC(=O)[C@H](Cc1ccccc1)NC(=O)CNC(=O)[C@H](CCCCN)NC(=O)[C@@H](N)CCCCN)C(=O)N[C@@H](CCCCN)C(=O)N[C@@H](CCCNC(=N)N)C(=O)NCC(=O)N[C@@H](Cc1ccccc1)C(=O)N[C@@H](CS)C(=O)N[C@@H](Cc1c[nH]c2ccccc12)C(=O)O [imm3] (H-KKGFYKKKQCRPSKGRKRGFCW-OH; N-terminus and C-terminus assumed) |
